Measured values from ChEMBL document CHEMBL1250451, “Mechanistic insights into a Ca2+-dependent family of alpha-mannosidases in a human gut symbiont” (Nat Chem Biol, 2010).
Active and inactive are the calls of the source. The calls are words filed in the database; no cut-off is given here.

Key:
Format in all cases: protein assay
[1] = target: T1, Alpha-1,2-mannosidase, putative (BT_4073) (Bacteroides thetaiotaomicron) (UniProt Q8A0E8); test: Activity of Bacteroides thetaiotaomicron GH92 alpha-mannosidase GH92 alpha-mannosidase 4073 assessed as mannose release at 1 mM after 16 hrs by HPLC relative to untreated control after 16 hrs by HPLC
T1 sequence (whole entry): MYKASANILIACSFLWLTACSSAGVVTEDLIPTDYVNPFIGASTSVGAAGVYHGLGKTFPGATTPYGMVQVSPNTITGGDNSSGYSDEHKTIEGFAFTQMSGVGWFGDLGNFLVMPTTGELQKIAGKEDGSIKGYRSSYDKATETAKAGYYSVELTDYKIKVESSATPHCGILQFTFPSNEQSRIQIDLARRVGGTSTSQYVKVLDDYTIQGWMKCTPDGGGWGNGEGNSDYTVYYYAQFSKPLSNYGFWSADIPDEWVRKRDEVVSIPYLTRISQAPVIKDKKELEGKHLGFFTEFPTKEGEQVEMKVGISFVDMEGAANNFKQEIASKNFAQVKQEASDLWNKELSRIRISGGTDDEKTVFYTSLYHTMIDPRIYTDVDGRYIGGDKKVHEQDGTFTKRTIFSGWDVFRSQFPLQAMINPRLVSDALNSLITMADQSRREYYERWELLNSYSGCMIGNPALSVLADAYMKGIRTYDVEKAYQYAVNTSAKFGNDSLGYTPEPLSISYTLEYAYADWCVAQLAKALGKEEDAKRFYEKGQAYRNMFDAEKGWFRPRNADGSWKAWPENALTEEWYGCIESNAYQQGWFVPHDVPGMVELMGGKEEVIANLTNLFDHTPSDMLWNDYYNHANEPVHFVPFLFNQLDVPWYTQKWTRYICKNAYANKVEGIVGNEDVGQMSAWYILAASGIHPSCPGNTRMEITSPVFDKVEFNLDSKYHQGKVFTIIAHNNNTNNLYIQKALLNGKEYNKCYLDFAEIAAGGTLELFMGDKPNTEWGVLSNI

[2] = target: T2, Alpha-1,2-mannosidase (BT_1878) (Bacteroides thetaiotaomicron) (UniProt Q8A6K3); test: Activity of Bacteroides thetaiotaomicron GH92 alpha-mannosidase GH92 alpha-mannosidase 1878 assessed as mannose release at 1 mM after 16 hrs by HPLC relative to untreated control after 16 hrs by HPLC
T2 sequence (whole entry): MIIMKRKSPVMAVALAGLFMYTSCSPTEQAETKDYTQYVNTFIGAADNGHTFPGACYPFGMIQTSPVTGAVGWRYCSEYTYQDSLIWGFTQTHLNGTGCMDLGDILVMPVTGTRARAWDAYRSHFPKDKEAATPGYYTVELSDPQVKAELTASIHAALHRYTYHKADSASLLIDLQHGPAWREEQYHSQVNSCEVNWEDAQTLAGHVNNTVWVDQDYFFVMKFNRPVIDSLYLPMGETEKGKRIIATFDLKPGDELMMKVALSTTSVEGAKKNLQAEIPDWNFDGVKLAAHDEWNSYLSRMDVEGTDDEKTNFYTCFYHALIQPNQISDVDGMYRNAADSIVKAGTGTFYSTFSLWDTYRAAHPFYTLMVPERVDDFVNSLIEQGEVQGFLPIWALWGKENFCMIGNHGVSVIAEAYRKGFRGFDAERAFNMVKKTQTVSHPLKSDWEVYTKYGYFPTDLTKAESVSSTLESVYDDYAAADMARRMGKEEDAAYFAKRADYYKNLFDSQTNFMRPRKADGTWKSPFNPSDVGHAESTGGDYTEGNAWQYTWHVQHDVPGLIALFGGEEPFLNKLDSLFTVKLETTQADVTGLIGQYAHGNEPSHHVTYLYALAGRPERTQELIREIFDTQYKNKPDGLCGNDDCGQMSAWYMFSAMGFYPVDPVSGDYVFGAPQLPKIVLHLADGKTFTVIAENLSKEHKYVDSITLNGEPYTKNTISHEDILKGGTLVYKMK

[3] = target: T3, Alpha-1,2-mannosidase (BT_4092) (Bacteroides thetaiotaomicron) (UniProt Q8A0C9); test: Activity of Bacteroides thetaiotaomicron GH92 alpha-mannosidase GH92 alpha-mannosidase 4092 assessed as mannose release at 1 mM after 16 hrs by HPLC relative to untreated control after 16 hrs by HPLC
T3 sequence (whole entry): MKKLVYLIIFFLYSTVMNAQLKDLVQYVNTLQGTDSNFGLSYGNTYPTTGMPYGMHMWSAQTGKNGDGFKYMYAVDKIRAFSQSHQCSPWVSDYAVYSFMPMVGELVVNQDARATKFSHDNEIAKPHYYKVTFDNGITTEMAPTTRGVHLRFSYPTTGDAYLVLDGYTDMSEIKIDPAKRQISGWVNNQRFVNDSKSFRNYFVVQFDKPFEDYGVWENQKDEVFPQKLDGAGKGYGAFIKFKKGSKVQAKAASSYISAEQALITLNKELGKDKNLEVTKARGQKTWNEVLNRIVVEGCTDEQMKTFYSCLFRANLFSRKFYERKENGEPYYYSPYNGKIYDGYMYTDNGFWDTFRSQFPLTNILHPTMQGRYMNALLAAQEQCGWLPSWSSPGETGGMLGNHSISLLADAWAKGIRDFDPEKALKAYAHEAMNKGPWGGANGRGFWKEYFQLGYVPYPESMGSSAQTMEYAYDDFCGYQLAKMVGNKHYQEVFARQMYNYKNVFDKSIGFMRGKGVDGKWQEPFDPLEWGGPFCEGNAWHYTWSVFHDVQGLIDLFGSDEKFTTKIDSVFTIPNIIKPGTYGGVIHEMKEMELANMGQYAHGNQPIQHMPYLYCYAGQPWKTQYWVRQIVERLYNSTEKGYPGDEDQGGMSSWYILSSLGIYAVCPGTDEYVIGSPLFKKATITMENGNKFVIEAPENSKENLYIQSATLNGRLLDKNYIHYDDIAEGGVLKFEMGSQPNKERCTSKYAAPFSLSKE

Activity [1] | Activity [2] [%] | Activity [3] | SMILES
inactive | 4.5 | 100% | OC[C@H]1O[C@H](O[C@H]2[C@@H](O)[C@H](O)[C@@H](CO)O[C@@H]2O)[C@@H](O)[C@@H](O)[C@@H]1O
inactive | 1.1 | inactive | OC[C@H]1O[C@H](OC[C@H]2O[C@H](O)[C@@H](O)[C@@H](O)[C@@H]2O)[C@@H](O)[C@@H](O)[C@@H]1O
inactive | – | 0.34% | OC[C@H]1O[C@H](O[C@@H]2[C@H](O)[C@@H](O)O[C@H](CO)[C@H]2O)[C@@H](O)[C@@H](O)[C@@H]1O
100% | 3.6 | 0.73% | OC[C@H]1O[C@H](O[C@H]2[C@H](O)[C@H](O)[C@@H](O)O[C@@H]2CO)[C@@H](O)[C@@H](O)[C@@H]1O
